Measured values: PubChem BioAssay (NCI)
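GI50: concentration for 50% inhibition of growth. Definition used: TGI = concentration required for complete inhibition of growth.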

Experiments:
Assay in all cases: growth of human tumour cells (NCI), 384-well format
OVCAR-8 ovarian = test system: OVCAR-8 ovarian
SNB-19 CNS = test system: SNB-19 CNS
HT29 colon = test system: HT29 colon
UO-31 renal = test system: UO-31 renal
SF-539 CNS = test system: SF-539 CNS
HCC-2998 colon = test system: HCC-2998 colon
RXF 393 renal = test system: RXF 393 renal
HOP-62 NSCLC = test system: HOP-62 NSCLC
NCI-H226 lung = test system: NCI-H226 lung
MOLT-4 leukemia = test system: MOLT-4 leukemia
MDA-MB-468 breast = test system: MDA-MB-468 breast
MCF7 breast = test system: MCF7 breast
NCI-H460 NSCLC = test system: NCI-H460 NSCLC
SW-620 colon = test system: SW-620 colon
NCI-H23 lung = test system: NCI-H23 lung
HOP-92 NSCLC = test system: HOP-92 NSCLC
HCT-116 colon = test system: HCT-116 colon
NCI-H522 lung = test system: NCI-H522 lung
SK-OV-3 ovarian = test system: SK-OV-3 ovarian
MDA-MB-435 melanoma = test system: MDA-MB-435 melanoma
NCI-H322M lung = test system: NCI-H322M lung
A498 renal = test system: A498 renal
RPMI-8226 leukemia = test system: RPMI-8226 leukemia
OVCAR-3 ovarian = test system: OVCAR-3 ovarian
BT-549 breast = test system: BT-549 breast
TK-10 renal = test system: TK-10 renal
PC-3 prostate = test system: PC-3 prostate
IGROV1 ovarian = test system: IGROV1 ovarian
KM12 colon = test system: KM12 colon
SN12C renal = test system: SN12C renal
ACHN renal = test system: ACHN renal
T-47D breast = test system: T-47D breast
MDA-MB-231 breast = test system: MDA-MB-231 breast
SR leukemia = test system: SR leukemia
SF-268 CNS = test system: SF-268 CNS
OVCAR-4 ovarian = test system: OVCAR-4 ovarian
CAKI-1 renal = test system: CAKI-1 renal
NCI/ADR-RES ovarian = test system: NCI/ADR-RES ovarian
HL-60(TB) leukemia = test system: HL-60(TB) leukemia
HS 578T breast = test system: HS 578T breast
CCRF-CEM leukemia = test system: CCRF-CEM leukemia
SK-MEL-28 melanoma = test system: SK-MEL-28 melanoma
A549 NSCLC = test system: A549 NSCLC
OVCAR-5 ovarian = test system: OVCAR-5 ovarian
EKVX NSCLC = test system: EKVX NSCLC
SNB-75 CNS = test system: SNB-75 CNS
SF-295 CNS = test system: SF-295 CNS

SMILES: Cc1ccc(Nc2nc(N)c(C(=O)c3ccc(C#N)cc3)s2)cc1
- GI50 (OVCAR-8 ovarian): 86.7 nM
- TGI (OVCAR-8 ovarian): 40300 nM
- GI50 (SNB-19 CNS): 325 nM
- TGI (SNB-19 CNS): > 100000 nM
- GI50 (HT29 colon): 34 nM
- TGI (HT29 colon): 28200 nM
- GI50 (UO-31 renal): 69 nM
- TGI (UO-31 renal): 1720 nM
- GI50 (SF-539 CNS): 188 nM
- TGI (SF-539 CNS): 393 nM
- GI50 (HCC-2998 colon): 105 nM
- TGI (HCC-2998 colon): 572 nM
- GI50 (RXF 393 renal): 23.3 nM
- TGI (RXF 393 renal): 51.2 nM
- GI50 (HOP-62 NSCLC): 38.6 nM
- TGI (HOP-62 NSCLC): 3610 nM
- GI50 (NCI-H226 lung): 39.3 nM
- TGI (NCI-H226 lung): 2070 nM
- GI50 (MOLT-4 leukemia): 128 nM
- TGI (MOLT-4 leukemia): 256 nM
- GI50 (MDA-MB-468 breast): 185 nM
- TGI (MDA-MB-468 breast): 352 nM
- GI50 (MCF7 breast): 40.2 nM
- TGI (MCF7 breast): 28200 nM
- GI50 (NCI-H460 NSCLC): 178 nM
- TGI (NCI-H460 NSCLC): 351 nM
- GI50 (SW-620 colon): 37.3 nM
- TGI (SW-620 colon): 13900 nM
- GI50 (NCI-H23 lung): 47.9 nM
- TGI (NCI-H23 lung): 1470 nM
- GI50 (HOP-92 NSCLC): 332 nM
- TGI (HOP-92 NSCLC): 23300 nM
- GI50 (HCT-116 colon): 243 nM
- TGI (HCT-116 colon): 976 nM
- GI50 (NCI-H522 lung): 121 nM
- TGI (NCI-H522 lung): 292 nM
- GI50 (SK-OV-3 ovarian): 247 nM
- TGI (SK-OV-3 ovarian): 18300 nM
- GI50 (MDA-MB-435 melanoma): 41.9 nM
- TGI (MDA-MB-435 melanoma): 151 nM
- GI50 (NCI-H322M lung): 481 nM
- TGI (NCI-H322M lung): 46400 nM
- GI50 (A498 renal): 298 nM
- TGI (A498 renal): 16400 nM
- GI50 (RPMI-8226 leukemia): 30.9 nM
- TGI (RPMI-8226 leukemia): 112 nM
- GI50 (OVCAR-3 ovarian): 170 nM
- TGI (OVCAR-3 ovarian): 414 nM
- GI50 (BT-549 breast): 38.2 nM
- TGI (BT-549 breast): 1310 nM
- GI50 (TK-10 renal): 447 nM
- TGI (TK-10 renal): 22200 nM
- GI50 (PC-3 prostate): 47.6 nM
- TGI (PC-3 prostate): > 100000 nM
- GI50 (IGROV1 ovarian): 73.2 nM
- TGI (IGROV1 ovarian): 15300 nM
- GI50 (KM12 colon): 42 nM
- TGI (KM12 colon): 19900 nM
- GI50 (SN12C renal): 348 nM
- TGI (SN12C renal): 54600 nM
- GI50 (ACHN renal): 72.5 nM
- TGI (ACHN renal): 17800 nM
- GI50 (T-47D breast): 743 nM
- TGI (T-47D breast): 26300 nM
- GI50 (MDA-MB-231 breast): 202 nM
- TGI (MDA-MB-231 breast): 35800 nM
- GI50 (SR leukemia): 18.1 nM
- TGI (SR leukemia): 33.4 nM
- GI50 (SF-268 CNS): 45.8 nM
- TGI (SF-268 CNS): 2520 nM
- GI50 (OVCAR-4 ovarian): 385 nM
- TGI (OVCAR-4 ovarian): 17800 nM
- GI50 (CAKI-1 renal): 56.6 nM
- TGI (CAKI-1 renal): 11200 nM
- GI50 (NCI/ADR-RES ovarian): 28.7 nM
- TGI (NCI/ADR-RES ovarian): 69.1 nM
- GI50 (HL-60(TB) leukemia): 19.7 nM
- TGI (HL-60(TB) leukemia): 34.7 nM
- GI50 (HS 578T breast): 22.1 nM
- TGI (HS 578T breast): 47.1 nM
- GI50 (CCRF-CEM leukemia): 170 nM
- TGI (CCRF-CEM leukemia): 310 nM
- GI50 (SK-MEL-28 melanoma): 14600 nM
- TGI (SK-MEL-28 melanoma): 74900 nM
- GI50 (A549 NSCLC): 247 nM
- TGI (A549 NSCLC): > 100000 nM
- GI50 (OVCAR-5 ovarian): 1460 nM
- TGI (OVCAR-5 ovarian): 55100 nM
- GI50 (EKVX NSCLC): 58.4 nM
- TGI (EKVX NSCLC): 51500 nM
- GI50 (SNB-75 CNS): 37 nM
- TGI (SNB-75 CNS): 520 nM
- GI50 (SF-295 CNS): 57.8 nM
- TGI (SF-295 CNS): 298 nM
